This note sets out measurements from publication PMC9495854, “Novel Phenothiazine/Donepezil-like Hybrids Endowed with Antioxidant Activity for a Multi-Target Approach to the Therapy of Alzheimer’s Disease” (Antioxidants, 2022).

One data set concerns the target T1, hAChE (Homo sapiens, UniProt P22303).
T1 construct: purchased
The experiment in a line: biochemical. Format: biochemical. The settings on record: mean ± SEM; for hAChE I% at 10 µM: inhibition at 10 µM. The procedure: (§1) The experiments were carried out using a properly modified version of Ellman’s spectrophotometric assay, adapted to a 96-well plate procedure. All reagents, including enzymes, were purchased from common suppliers. Incubation of the proper enzyme with the single compound at different concentrations was performed in clear flat-bottomed, 96-well plates (Greiner Bio-One GmbH, Frickenhausen, Germany) and in duplicate. […] Fluorescence measures were carried out using Tecan Infinite M1000 Pro multiplate reader (Tecan, Cernusco S.N., Italy). IC50 values and inhibition values were calculated as the mean of three independent experiments and are expressed as mean ± SEM [13].

Another data set concerns the target T2, hBChE (Homo sapiens, UniProt P06276).
T2 construct: purchased
The experiment in a line: biochemical. The settings on record: mean ± SEM. The procedure: as §1

Another data set addresses T3, FAAH Human recombinant (Homo sapiens, UniProt O00519).
T3 construct: purchased Cayman Chemical
T3 sequence (O00519 1-579): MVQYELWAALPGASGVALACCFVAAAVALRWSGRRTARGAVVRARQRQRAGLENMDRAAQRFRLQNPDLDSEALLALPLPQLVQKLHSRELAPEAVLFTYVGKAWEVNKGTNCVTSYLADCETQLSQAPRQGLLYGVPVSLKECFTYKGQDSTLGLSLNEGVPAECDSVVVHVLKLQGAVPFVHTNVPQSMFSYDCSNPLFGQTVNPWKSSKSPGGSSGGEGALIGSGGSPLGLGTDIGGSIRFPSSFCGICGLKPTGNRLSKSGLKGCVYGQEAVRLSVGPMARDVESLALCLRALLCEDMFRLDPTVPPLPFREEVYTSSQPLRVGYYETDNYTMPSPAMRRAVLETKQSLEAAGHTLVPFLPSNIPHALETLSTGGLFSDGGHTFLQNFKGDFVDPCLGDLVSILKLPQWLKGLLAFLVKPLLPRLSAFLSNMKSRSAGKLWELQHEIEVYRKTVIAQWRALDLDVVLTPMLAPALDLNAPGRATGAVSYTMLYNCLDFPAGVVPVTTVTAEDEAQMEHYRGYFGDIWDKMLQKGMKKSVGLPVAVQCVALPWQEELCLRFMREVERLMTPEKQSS
As to the kind of experiment: FAAH inhibition, fluorometric assay. The format is biochemical. As to conditions: mean ± SEM; read-out: hFAAH (IC50). Here is the method: The fatty acid amide hydrolase inhibition was measured for the final compounds using 96-well black flat-bottom microtiter NBS plates (COSTAR flat black). The total volume was 150 µL: the single hybrid was pre-incubated at different concentrations with the enzyme (FAAH Human recombinant, Cayman Chemical, Ann Arbor, MI, USA) in the specific fluorometric assay buffer (tris-HCl 125 mM, Na2EDTA · 2H2O 1 mM, pH = 9.0) for ten minutes at RT, using an orbital shaker. A 50 μL solution of the substrate (7-amino-4-methyl-2H-1-benzopyran-2-one-5Z,8Z,11Z,14Z-eicosatetraen-amide, at a final concentration of 5 µM) was then added. The plates were then incubated for 1 h at 37 °C in a Tecan Infinite M1000 Pro (Tecan, Cernusco S.N., Italy), reading fluorescence values from each well every 30s (λex = 340 nm, λem = 450 nm). The inhibitor activity was expressed as relative fluorescence units (RFU), using the values obtained from control wells lacking the inhibitor and blank wells lacking both inhibitor and enzyme to calculate percent inhibition values for each well. IC50 values are expressed as mean ± SEM of at least two independent measurements performed in triplicate.

A further data set deals with SH-SY5Y cells. The experiment in a line: MTT cell viability assay, SH-SY5Y. As to conditions: 24 h exposure. The format is cell-based. Here is the method:
Human hepatocellular liver carcinoma (HepG2) cell line and human neuroblastoma cell line, SH-SY5Y, were purchased from the American Type Culture Collection (ATCC, Manassas, VA, USA) and maintained at 37 °C in a humidified atmosphere (95% air and 5% carbon dioxide), and they were periodically screened for contamination. HepG2 cells were cultured in Eagle’s Minimum Essential Medium (MEM, Euroclone S.p.A., Pero, MI, Italy), supplemented with 10% Fetal Bovine Serum (FBS, Euroclone S.p.A., Pero, MI, Italy), 1% L-glutamine (Euroclone S.p.A., Pero, MI, Italy), 100 U/mL penicillin/streptomycin (Euroclone S.p.A., Pero, MI, Italy), 1% Non-Essential Amino Acids (NEAA, Euroclone S.p.A., Pero, MI, Italy). SH-SY5Y cells were grown in a 1:1 mixture of Dulbecco’s modified Eagle’s medium (DMEM)—high glucose (Euroclone S.p.A., Pero, MI, Italy) and Ham’s F12 Medium (Euroclone S.p.A., Pero, MI, Italy) supplemented with 10% FBS, 1% L-glutamine and 100 U/mL penicillin/streptomycin. For cell assays, cells were trypsinized using Trypsin-EDTA 1X in PBS (Euroclone S.p.A., Pero, MI, Italy).
HepG2 and SH-SY5Y cell viability was assessed as previously reported by using a conventional 3-(4,5-dimethylthiazol-2-yl)-2,5-diphenyltetrazolium bromide (MTT) assay. In brief, viable cells were seeded and grown for 24 h into a sterile 96-well cell culture cluster (Corning, Sigma-Aldrich, St. Louis, MO, USA) in a complete medium and maintained at 37 °C in a humidified atmosphere with 5% CO2. The cells were then added with different concentrations of each compound for a period of 1 h or 24 h. At the end, the culture medium was replaced by a solution of 0.5 mg/mL MTT (Sigma-Aldrich, St. Louis, MO, USA) in PBS. After 2 h of incubation at 37 °C in 5% CO2, the supernatant was carefully removed from each well, and the formazan crystals were dissolved in DMSO. The absorbance values were measured at 570 nm using Tecan Infinite M1000 Pro (Tecan, Cernusco S.N., Italy) and DMSO medium as blank solution. The results were reported as % cell viability = [optical density (OD) of tested compound/medium OD of control cells] × 100. The results are expressed as mean ± SEM of at least three independent measurements in triplicate.

The IC50 is the midpoint of a concentration-inhibition curve.

Structures are written as SMILES. Marks after values point to notes of the source that are not given here.

T1 sequence (P22303 32-614): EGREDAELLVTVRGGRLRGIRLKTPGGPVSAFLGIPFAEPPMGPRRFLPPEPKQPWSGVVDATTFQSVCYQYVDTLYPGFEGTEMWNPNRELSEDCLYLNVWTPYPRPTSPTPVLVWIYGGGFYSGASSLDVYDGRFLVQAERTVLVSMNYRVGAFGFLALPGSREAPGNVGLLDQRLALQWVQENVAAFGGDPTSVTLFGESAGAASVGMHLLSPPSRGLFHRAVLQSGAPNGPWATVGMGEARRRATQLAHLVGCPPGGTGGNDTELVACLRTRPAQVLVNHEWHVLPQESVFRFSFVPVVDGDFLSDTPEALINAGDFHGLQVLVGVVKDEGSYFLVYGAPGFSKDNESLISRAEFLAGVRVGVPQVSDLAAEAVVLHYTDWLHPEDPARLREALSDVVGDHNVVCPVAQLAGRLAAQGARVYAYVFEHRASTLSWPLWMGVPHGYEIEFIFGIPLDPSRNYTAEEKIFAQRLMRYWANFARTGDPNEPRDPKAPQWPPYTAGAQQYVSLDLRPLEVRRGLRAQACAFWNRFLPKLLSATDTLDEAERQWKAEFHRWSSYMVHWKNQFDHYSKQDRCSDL
T2 sequence (P06276 29-602): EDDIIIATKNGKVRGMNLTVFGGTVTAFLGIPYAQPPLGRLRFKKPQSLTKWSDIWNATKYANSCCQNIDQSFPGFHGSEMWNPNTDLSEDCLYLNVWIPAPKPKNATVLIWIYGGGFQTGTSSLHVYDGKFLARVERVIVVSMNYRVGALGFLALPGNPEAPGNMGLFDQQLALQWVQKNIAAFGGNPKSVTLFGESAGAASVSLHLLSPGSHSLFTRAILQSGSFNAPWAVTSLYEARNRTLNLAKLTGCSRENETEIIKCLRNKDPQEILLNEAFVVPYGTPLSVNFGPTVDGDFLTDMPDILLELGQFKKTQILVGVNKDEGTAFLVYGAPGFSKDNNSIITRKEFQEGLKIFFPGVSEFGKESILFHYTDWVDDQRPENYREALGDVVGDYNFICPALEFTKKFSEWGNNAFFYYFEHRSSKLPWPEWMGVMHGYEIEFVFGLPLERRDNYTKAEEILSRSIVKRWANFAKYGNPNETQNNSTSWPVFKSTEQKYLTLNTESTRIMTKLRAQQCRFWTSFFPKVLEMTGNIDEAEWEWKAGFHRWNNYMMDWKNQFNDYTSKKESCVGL

As for `O=C(NCC1CCN(Cc2ccccc2)CC1)c1ccc2c(c1)Nc1ccccc1S2` [Compound 11a, N-((1-Benzylpiperidin-4-yl)methyl)-10H-phenothiazine-2-carboxamide], the values for the IC50 on hAChE, at hBChE and on FAAH Human recombinant were 597 ± 64 nM, 2160 ± 270 nM and 22600 ± 1600 nM, respectively.

Turning to `O=C(NCC1CCN(Cc2ccccc2F)CC1)c1ccc2c(c1)Nc1ccccc1S2` [Compound 11d, N-((1-(2-Fluorobenzyl)piperidin-4-yl)methyl)-10H-phenothiazine-2-carboxamide], the IC50 stood at 1750 ± 110 nM at hAChE, 1200 ± 10 nM at hBChE and 5060 ± 400 nM on FAAH Human recombinant.

As for `Cc1ccccc1CN1CCC(CNC(=O)c2ccc3c(c2)Nc2ccccc2S3)CC1` [Compound 11c, N-((1-(2-Methylbenzyl)piperidin-4-yl)methyl)-10H-phenothiazine-2-carboxamide], the “hAChE I% at 10 µM” value on hAChE is 44% ± 2 ^b. Besides, the IC50 on hBChE turned out to be 1470 ± 30 nM; on FAAH Human recombinant it was 3080 ± 440 nM.

Turning to `Cc1ccccc1CN1CCN(CCNC(=O)c2ccc3c(c2)Nc2ccccc2S3)CC1` [Compound 12c, N-(2-(4-(2-Methylbenzyl)piperazin-1-yl)ethyl)-10H-phenothiazine-2-carboxamide], on hAChE, the “hAChE I% at 10 µM” value is 56% ± 3 ^b. Further, the IC50 amounted to 2500 ± 60 nM on hBChE and 7330 ± 860 nM at FAAH Human recombinant.

As for `CC(=O)N1c2ccccc2Sc2ccc(C(=O)NCCN3CCN(Cc4ccccc4Cl)CC3)cc21` [Compound 13, 10-Acetyl-N-(2-(4-(2-chlorobenzyl)piperazin-1-yl)ethyl)-10H-phenothiazine-2-carboxamide], on hAChE, the “hAChE I% at 10 µM” value is 48% ± 5 ^b. In addition, the IC50 on FAAH Human recombinant is 16900 ± 4400 nM.

For `COc1cccc(CN2CCC(CNC(=O)c3ccc4c(c3)Nc3ccccc3S4)CC2)c1` [Compound 11e, N-((1-(3-Methoxybenzyl)piperidin-4-yl)methyl)-10H-phenothiazine-2-carboxamide], the “hAChE I% at 10 µM” value on hAChE was 22% ± 4 ^b. For the same compound, the “hBChE I% at 10 µM” value on hBChE (inhibition at 10 µM) is listed as 47% ± 1 ^b. The IC50 at FAAH Human recombinant turned out to be 13000 ± 3400 nM.

As for `O=C(NCCN1CCN(Cc2ccccc2F)CC1)c1ccc2c(c1)Nc1ccccc1S2` [Compound 12d, N-(2-(4-(2-Fluorobenzyl)piperazin-1-yl)ethyl)-10H-phenothiazine-2-carboxamide], the IC50 at hAChE worked out at 599 ± 112 nM; at hBChE, 4330 ± 190 nM; at FAAH Human recombinant it was 9650 ± 2450 nM. Also, the “MTT cytotoxicity IC50 ± SEM SHSY-5Y 24 h” value in the data set with SH-SY5Y cells is “no cytotoxic effects”.

`O=C(NCCN1CCN(Cc2ccccc2)CC1)c1ccc2c(c1)Nc1ccccc1S2` [Compound 12a, N-(2-(4-Benzylpiperazin-1-yl)ethyl)-10H-phenothiazine-2-carboxamide]: the values for the IC50 against hAChE, against hBChE and at FAAH Human recombinant were 943 ± 46 nM, 2020 ± 30 nM and 41400 ± 900 nM, respectively.

In the case of `O=C(NCCN1CCN(Cc2ccccc2Cl)CC1)c1ccc2c(c1)Nc1ccccc1S2` [Compound 12b, N-(2-(4-(2-Chlorobenzyl)piperazin-1-yl)ethyl)-10H-phenothiazine-2-carboxamide], the results for the IC50 against hAChE and on FAAH Human recombinant were 1850 ± 150 nM and 6310 ± 1280 nM, respectively.

As to `O=C(NCC1CCN(Cc2ccccc2Cl)CC1)c1ccc2c(c1)Nc1ccccc1S2` [Compound 11b, N-((1-(2-Chlorobenzyl)piperidin-4-yl)methyl)-10H-phenothiazine-2-carboxamide], the “hAChE I% at 10 µM” value at hAChE is given as 52% ± 1 ^b. Moreover, the IC50 turned out to be 1980 ± 120 nM against hBChE and 3800 ± 900 nM on FAAH Human recombinant.
